US20030226169A1, “DNA sequences encoding antifungal proteins” (priority 1995, published 2003)
≈ marks a conversion by molar mass, not a printed value. Non-standard residues stand in square brackets, D forms with d. Residues, ends and D or L forms follow the SMILES beside them. Abu = CC[C@H](N)C(=O)O

System: Fusarium culmorum (IMI 180420)
Experiment: Antifungal growth inhibition microplate assay (photospectrometry)
Assay type: cell-based
Protocol: The following fungal strains were used: Alternaria brassicicola (MUCL 20297), Ascophyta pisi (MUCL 30164), Botrytis cinerea (MUCL 30158), Fusarium culmorum (IMI 180420) and Verticillium dahliae (MUCL 19210).
Fungi were grown on six cereal agar plates at room temperature and under white fluorescent light except for F culmorum and V dahliae which were grown in the dark. The duration of the spore harvest varied between 10 and 25 days depending on the strain. Spores were collected as follows. Five to ten ml of sterile milli-Q water was poured into each dish and the surface of the agar was rubbed with a sterile spatula to obtain a suspension containing mycelium and spores. This suspension was filtered through a sterile glasswool-plugged funnel and the filtrate containing the spores was collected in a sterile polypropylene centrifuge tube. The A brassicicola spores were suspended in sterile 0.1 Tween 20 (Merk, 822184) due to their hydrophobic nature. The spore suspensions were then washed twice by centrifugation at 2,400×g for 15 minutes and resuspended in a small volume of steril milli-Q water. The spore density was determined in a counting chamber and then adjusted to 4×10^7 spores per ml. Aliquots of the spore suspension were transferred to sterile microtubes and an equal volume of sterile 50% glycerol (Merck, 4091) was added to each tube so that a final spore suspension of 2×10^7 spores per ml in 25% glycerol was obtained. After careful mixing of the stock, the spore suspension was transferred in 100 μl aliquots to sterile microtubes and stored at −80° C.
Antifungal activity was measured by photospectrometry as described by Broekaert et al, (1990, FEMS Microbiol Lett, 69:55-60). Tests were performed by adding 20 μl of test solution and 80 μl of a fungal spore suspension (2×10^4 spores/ml) per well in a sterile flat-bottom 96-well microtiterplate. The spore suspension was prepared by diluting the stock spore suspension ([…] in 25% glycerol) 1:1000 in half-strength potato dextrose broth. A positive growth control consisting of eight wells containing 20 μl of sterile milli-Q water and 80 μl of the fungal spore suspension was included in each test. The microtiterplates were incubated (with the lid on) in an aerated place at room temperature and under conditions of darkness for all test organisms.
After 30 minutes of incubation (when the spores are settled on the well bottom) the optical density was measured in a microplate reader (Bio Rad 3550-UV) at 595 nm. Incubation of the microtiterplates continued until the optical density of the control microculture was between 0.250 and 0.500, which took approximately 72 hours (96 hours for V dahliae). Percentage of growth inhibition (% GI) was estimated as 100 times the ratio of the corrected absorbance of the control microculture minus the corrected absorbance of the test microculture over the corrected absorbance of the control microculture at 595 nm. The corrected absorbance values equal the absorbance at 595 nm of the culture measured after 72 or 96 hours minus the absorbance at 595 nm measured after 30 minutes.
% GI=[(Acontrol−Atest/Acontrol]×100
where Acontrol=(A72/96h−A30min)control
The IC50 value is defined as the concentration that gives a 50% growth inhibition after 72 or 96 hours of incubation. The minimum inhibitory concentration (MIC) corresponds to the minimum concentration that gives 100% growth inhibition after 72 or 96 hours incubation.

[1] = Table 4 / FIG. 6: Rs-AFP2-based 12-mer split peptides, ½ PDB, the source numbers peptides by N-terminal amino acid
[2] = Table 4: Rs-AFP2-based 12-mer split peptides, ½ PDB, triplicate
[3] = Table 14: 18-, 19-, 20-mer peptides with C-terminal Phe49, duplo

For Ac-IRLEKARHGSCN-NH2 [compound 115], the IC50 [1] was 203 mg/L and the MIC [2] was 300 mg/L.
`CC[C@H](NC(=O)[C@H](C)NC(=O)CNC(=O)[C@H](Cc1c[nH]cn1)NC(=O)[C@H](C)NC(=O)[C@H](C)NC(C)=O)C(=O)N[C@@H](Cc1c[nH]cn1)C(=O)N[C@H](C(=O)N[C@@H](CCCNC(=N)N)C(=O)N[C@@H](CC(N)=O)C(=O)NCC(=O)N[C@@H](CCCCN)C(=O)N[C@@H](Cc1c[nH]cn1)C(=O)N[C@@H](CCSC)C(=O)N[C@@H](CC)C(=O)N[C@@H](Cc1ccccc1)C(=O)N[C@@H](CC)C(=O)N[C@@H](Cc1ccc(O)cc1)C(=O)N[C@@H](Cc1ccccc1)C(N)=O)C(C)C` [Peptide N5, AAHGABHVRNGKHMBFBYF] (Ac-AAHGA[Abu]HVRNGKHM[Abu]F[Abu]YF-NH2) was tested, and the “IC50 1/2 PDB” value (Table 13: linear β2-β3 loop MPS peptides, 2 × 10^4 spores/ml, duplo) was 8.0 ± 0.4 mg/L (≈ 3.74 µM), the “IC50 SMF + pH5” value (Table 13: linear β2-β3 loop MPS peptides, SMF+ (1 mM Ca2+, 50 mM K+) pH5, duplo) was 20.9 ± 1.8 μg/ml and the “IC50 SMF + pH7” value (Table 13: linear β2-β3 loop MPS peptides, SMF+ (1 mM Ca2+, 50 mM K+) pH7, duplo) was 24.2 ± 0.2 μg/ml. The “activity compared to Rs-AFP counterpart G2” value (½ PDB) was “almost two-fold higher activity”.
`CC[C@H](NC(=O)[C@H](CO)NC(=O)CNC(=O)[C@H](Cc1c[nH]cn1)NC(=O)[C@H](CCCNC(=N)N)NC(C)=O)C(=O)N[C@@H](CC(N)=O)C(=O)N[C@@H](Cc1ccc(O)cc1)C(=O)N[C@H](C(=O)N[C@@H](Cc1ccccc1)C(=O)N1CCC[C@H]1C(=O)N[C@@H](C)C(=O)N[C@@H](Cc1c[nH]cn1)C(=O)N[C@@H](CCCCN)C(=O)N[C@@H](CC)C(=O)N[C@H](C(=O)N[C@@H](CC)C(=O)N[C@@H](Cc1ccc(O)cc1)C(=O)N[C@@H](Cc1ccccc1)C(N)=O)[C@@H](C)CC)C(C)C` [Peptide P02, RHGSBNYVFPAHKBIBYF] (Ac-RHGS[Abu]NYVFPAHK[Abu]I[Abu]YF-NH2) was tested, and the “IC50 SMF + pH5” value [3] was 69 ± 34 μg/ml, the “IC50 SMF + pH7” value [3] was 133 ± 6 μg/ml and the “IC50 ½ PDB” value (Table 14: 18-, 19-, 20-mer peptides with C-terminal Phe49, peptides single experiment) was 8.9 mg/L (≈ 4.17 µM).
For Ac-FPAHKC-NH2 [compound 40], the MIC (Table 2: Rs-AFP2-based 6-mer split peptides, ½ PDB, duplicate) was 100 mg/L.
With Ac-LEKARHGSC-NH2 [compound 74] the IC50 (Table 3 / FIG. 6: Rs-AFP2-based 9-mer split peptides, ½ PDB, the source numbers peptides by N-terminal amino acid) was 270 mg/L, the MIC (Table 3: Rs-AFP2-based 9-mer split peptides, ½ PDB, duplicate) was 400 mg/L and the “F CULMORUM IC” value (Table 6 / FIG. 8: Rs-AFP1-based 9-mer split peptides, ½ PDB, the source numbers peptides by N-terminal amino acid) was 370 µg/mL. The “F CULMORUM MIC” value (Table 6: Rs-AFP1-based 9-mer split peptides, ½ PDB) was over 400 mg/L.
Molecule `CC[C@H](C)[C@H](NC(=O)[C@H](CS)NC(=O)[C@H](CCC(N)=O)NC(=O)[C@H](CC(N)=O)NC(=O)[C@H](CCCCN)NC(=O)[C@H](CS)NC(=O)[C@H](C)NC(=O)[C@H](CC(N)=O)NC(C)=O)C(=O)N[C@@H](CCCNC(=N)N)C(=O)N[C@@H](CC(C)C)C(=O)N[C@@H](CCC(=O)O)C(=O)N[C@@H](CCCCN)C(N)=O` [compound 108] (Ac-NACKNQCIRLEK-NH2) has an IC50 [1] of 150 mg/L (≈ 103 µM) and an MIC [2] of 200 mg/L (≈ 137 µM).
Work on `CC[C@H](C)[C@H](NC(=O)[C@H](CS)NC(=O)[C@H](CCC(N)=O)NC(=O)[C@H](CC(N)=O)NC(=O)[C@H](CCCCN)NC(=O)[C@H](CS)NC(=O)[C@H](C)NC(C)=O)C(=O)N[C@@H](CCCNC(=N)N)C(=O)N[C@@H](CC(C)C)C(=O)N[C@@H](CCC(=O)O)C(=O)N[C@@H](CCCCN)C(=O)N[C@@H](C)C(N)=O` [compound 109] (Ac-ACKNQCIRLEKA-NH2) yielded an IC50 [1] of 106 mg/L (≈ 74.8 µM) and an MIC [2] of 150 mg/L (≈ 106 µM).
